{
  "source": "patent US6544727B1",
  "about": "“Methods and devices for the removal of psoralens from blood products” (Cerus Corporation, priority 1995, dated 2003)",
  "key": {"[1]": {"system": "Salmonella tester strain TA97a", "outline": "(§1)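 Pre-incubation Ames method: overnight culture plus 10% Aroclor 1254-induced rat liver S-9 mix or 0.2M phosphate buffer pH 7.4, with test solutions of 0–500 μg/mL, shaken 20 min at 37° C. Plated in histidine/biotin top agar on minimal glucose agar, revertant colonies counted after 44 h at 37° C against spontaneous-revertant background.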"}, "[2]": {"system": "Salmonella tester strain TA100", "outline": "as §1"}, "[3]": {"system": "platelets", "assay": "S-59 uptake by platelets and effect of pre-incubation on adsorption kinetics (Example 23)", "type": "in vitro ADME, human", "details": "FIG. 25A", "method": "As discussed previously, S-59 uptake by platelets can occur over a period of several hours before saturation occurs. FIG. 25A graphically depicts S-59 (Co=50 μM) uptake by platelets over time (top) and S-59 release by platelets over time (bottom). As shown in the top graph, S-59 equilibrium is achieved at approximately two hours.\nThis example is directed to the question of whether partitioning of S-59 into platelets has a significant effect on adsorption kinetics. The adsorption kinetics of PC pre-incubated with S-59 for 24 hours prior to adsorption were compared to adsorption kinetics in PC without a pre-incubation period. […] Samples of PC were removed at various time points and analyzed for levels of residual S-59."}, "[4]": {"assay": "Batch adsorption of S-59 and photoproducts from illuminated PC, HPLC (Examples 27, 28)", "type": "physicochemical", "method": "The peak corresponding to S-59 is present in the chromatograms representing non-illuminated S-59 (top) and illuminated S-59 (middle) at a retention time of approximately 12 minutes. The other peaks in the chromatogram representing illuminated S-59 (middle) (besides the injection peak at about 3 minutes) correspond to S-59 photoproducts formed during illumination. Note that the peaks appear at time (t)=18 minutes and t=20 minutes are plasma species and are not related to S-59. The peaks which remain in the bottom panel are not S-59 photoproducts, so removal of S-59 and photoproducts was essentially complete in this case as indicated by HPLC (i.e., non-detectable by HPLC)."}, "[5]": {"assay": "S-59 concentration by HPLC before and after illumination and RD treatment (Table Q)", "type": "physicochemical", "method": "Two ABO-matched single donor PCs containing 2−5×10^11 platelets in approximately 300 mL of 35% plasma and 65% PAS III were pooled and redivided into two identical units in PL 2410 Plastic containers (Baxter). One unit (the control) was immediately placed on a platelet shaker and stored at approximately 22° C. The other unit (the test) was treated with 150 μM S-59 and 3 Joules/cm^2 UVA. After treatment, the platelets suspension was transferred into a second PL 2410 Plastic container containing a RD. Contact between platelets and the RD occurred for a period of approximately 8 hours, then the platelet suspension was transferred to a new PL 2410 Plastic container for storage. The time of blood donation was defined as day 0. Treatment with S-59, UVA (320-400 nm), and the RD was performed on day 1. Six replicate experiments were carried out, each with a different pool of two ABO-matched single-donor platelet concentrates.\nTo evaluate the efficacy of the RD for reducing the concentration of S-59, platelet samples from the test unit were analyzed for S-59 content by HPLC. Samples before illumination, after 3 Joules/cm^2 of illumination, and immediately following the 8-hour RD treatment were analyzed."}},
  "note": "Where two headings read alike, the source gives them in different places.",
  "data": [
    {"molecule": "Cc1oc2c(C)c3oc(=O)cc(C)c3cc2c1CN", "note": "[AMT, 4′-Aminomethyl-4,5′,8-trimethylpsoralen, reference compound]", "values": [
      {"measurement": "revertant colonies per plate", "setting": "[1]; TA97a + S9, 0.1 μg/plate", "result": "−23"},
      {"measurement": "revertant colonies per plate", "setting": "[1]; TA97a + S9, 0.5 μg/plate", "result": 32},
      {"measurement": "revertant colonies per plate", "setting": "[1]; TA97a + S9, 1 μg/plate", "result": 32},
      {"measurement": "revertant colonies per plate", "setting": "[1]; TA97a + S9, 5 μg/plate", "result": 149},
      {"measurement": "revertant colonies per plate", "setting": "[1]; TA97a − S9, 0.1 μg/plate", "result": 14},
      {"measurement": "revertant colonies per plate", "setting": "[1]; TA97a − S9, 0.5 μg/plate", "result": 9},
      {"measurement": "revertant colonies per plate", "setting": "[1]; TA97a − S9, 1 μg/plate", "result": 54},
      {"measurement": "revertant colonies per plate", "setting": "[1]; TA97a − S9, 5 μg/plate", "result": 73}
    ]},
    {"molecule": "Cc1oc2c(C)c3oc(=O)cc(C)c3cc2c1COCCN", "note": "[Compound 2, 4′-(4-amino-2-oxa)butyl-4,5′,8-trimethylpsoralen]", "values": [
      {"measurement": "revertant colonies per plate", "setting": "[2]; TA100 + S9, 5 μg/plate", "result": "−18"},
      {"measurement": "revertant colonies per plate", "setting": "[2]; TA100 + S9, 10 μg/plate", "result": 1},
      {"measurement": "revertant colonies per plate", "setting": "[2]; TA100 + S9, 50 μg/plate", "result": 115},
      {"measurement": "revertant colonies per plate", "setting": "[2]; TA100 + S9, 100 μg/plate", "result": 96},
      {"measurement": "revertant colonies per plate", "setting": "[2]; TA100 − S9, 5 μg/plate", "result": 103},
      {"measurement": "revertant colonies per plate", "setting": "[2]; TA100 − S9, 10 μg/plate", "result": 46},
      {"measurement": "revertant colonies per plate", "setting": "[2]; TA100 − S9, 50 μg/plate", "result": 182},
      {"measurement": "revertant colonies per plate", "setting": "[2]; TA100 − S9, 100 μg/plate", "result": 121},
      {"measurement": "time to S-59 uptake equilibrium in platelets", "setting": "[3]", "result": "approximately two"},
      {"measurement": "removal of S-59", "setting": "[4]; at 2 hours, Amberlite XAD-4 10 g/300 mL, illuminated platelets in 35% plasma/[…]% PAS III, HPLC", "result": "greater than 99%"},
      {"measurement": "S-59 and low molecular weight photoproducts adsorbed from PCs", "setting": "[4]; batch devices, appropriate adsorbents", "result": "greater than 99%"},
      {"measurement": "initial S-59 concentration in a platelet concentrate", "setting": "[5]; 0 Joule/cm^2, HPLC", "result": "approximately 145±10 μM"},
      {"measurement": "μM S-59", "setting": "[5]; Post Treatment With An RD (8 Hours)", "result": "0.27 ± 0.05", "unit": "µM"},
      {"measurement": "μM S-59", "setting": "[5]; Pre-Treatment (0 Joule/cm^2), platelet concentrate", "result": "145 ± 10", "unit": "µM"},
      {"measurement": "initial S-59 remaining unreacted", "setting": "[5]; after 3 Joule/cm^2 of illumination", "result": "20.5%±2.3%"}
    ]}
  ]
}
